Test results reported in article PMC8282797, “Strictly regulated agonist-dependent activation of AMPA-R is the key characteristic of TAK-653 for robust synaptic responses and cognitive improvement” (Scientific Reports, 2021).
“Also recorded” adds a separate entry of the source.

Experiments:
hGluA1i = biological target: T1, hGluA1i (Homo sapiens, UniProt P42261); experiment: Ca2+ influx assay in hGluA1i CHO cells; assay type: cell-based; conditions: in the presence of glutamate (3 mM)
T1 construct: expressed in transfected cells; host or cells: CHO cells
Protocol: Ca^2+ influx assays using human GluA1/flip and human stargazin co-expressing CHO cells plated at 3 × 10^4 cells/well in 96-well Black Clear plates (Corning Incorporated, Corning, NY) were performed as previously described, with some modifications. For evaluation of the species difference, rat GluA1/flip expressing CHO cells were plated. For mutant channels, the human GluA1i S743A mutant was generated using the In-Fusion HD Cloning Kit (Takara Bio Inc., Kusatsu, Japan) according to the manufacturer's protocol and transiently introduced to CHO cells by Gene Pulser II Electroporation System (Bio-Rad Laboratories, Inc., Hercules, CA). Relative increases of intracellular Ca^2+ levels were monitored for 3 min with a fluorometric imaging plate reader (CellLux, Perkin Elmer Life and Analytical Sciences, Inc., Shelton, CT). […]
Human GluA1/flip and human stargazin co-expressing CHO cells were plated at 3×10^4 cells/well in 96-well Black Clear plate (Corning Incorporated, Corning, NY). […] Relative increases of intracellular Ca^2+ levels by compounds in the presence and absence of 3 mM L-glutamate were monitored for 3 min by fluorometric imaging plate reader (CellLux, Perkin Elmer Life and Analytical Sciences, Inc., Shelton, CT). Activity of compound was defined as integration value of fluorescence value of each detection point. […] EC50 values were calculated by logistic regression analysis.

cynomolgus monkeys = experiment: Delayed match-to-sample (DMTS) task; assay type: in vivo, cynomolgus monkey (Macaca fascicularis); conditions: 0.06 mg/kg, p.o., 6 h prior to testing
Protocol: DMTS tasks were performed using 4–6 years old male cynomolgus monkeys (Macaca fascicularis) weighing 4–6 kg as previously described, using a Cambridge Neuropsychological Test Automated Battery (CANTAB) system (CeNes, Cambridge, UK). Monkeys were maintained at 80% of free-feeding body weight throughout the experiment. Details are described in the Supplementary Information.
The experiment was performed using 4-6 years old male cynomolgus monkeys (Macaca fascicularis) weighing 4-6 kg. Monkeys were maintained at 80% of free-feeding body weight throughout the experiment. Four monkeys were trained to perform DMTS task using a Cambridge Neuropsychological Test Automated Battery (CANTAB) system (CeNes, Cambridge, UK) (Weed et al., 1999). Briefly, a trial was initiated by presentation of an image of a sample object on the screen. The monkey had to touch this object on the screen within 30 s. Then, the sample object was diminished from the screen, and a variable delay (0, 4, 8, and 16 s) was ensured. After the delay, the sample object was re-presented together with three other objects. The monkey had to choose the sample object from the four objects and a collect choice was reinforced by the food reward. The ITI was 5 s and one session consisted of 96 trials (24 trials of each delay of 0, 4, 8, and 16 s). […] The correct responses were recorded for all trials during test sessions. […]

poly-I:C mouse = experiment: Social approach-avoidance test in poly-I:C mouse; assay type: in vivo; conditions: 0.3 mg/kg, p.o., 1 h prior to test
Protocol: Poly-I:C (5 mg/kg) dissolved in sterile pyrogen-free 0.9% NaCl (control) solution was administered to pregnant female C57BL/6J mice on gestation day 15 (GD15) via the intravenous route at the tail vein with a volume of 5 ml/kg.
The apparatus was a three-chamber gray acryl box (53 × 19 × 21.5 cm, outer chamber: 19.3 × 19 × 21.5 cm), and dividing walls were made from clear acryl plates with gates. In the two outer chambers, transparent acryl cylinders with small holes (cylinder: 8.2 cm φ × 20.5 cm, hole: 1.3 cm φ) were placed to avoid direct physical interaction between a target animal and a test animal. Target animals were C57BL/6 J mice of the same age as test animals and no previous contact with them. On the test day, TAK-653 (0.3 mg/kg, p.o.) or vehicle was administered 1 h before the testing session. Each test animal was introduced in the middle chamber of test apparatus for 3 min with the gates being closed by partitions. Then the partitions were removed gently for the test animal to explore all three chambers freely for 5 min. Sniffing index was calculated as the index of sociability using the following equation:
Sniffing index = (Sniffing time to cylinder containing target mouse (s) − Sniffing time to empty cylinder (s))/ (Total sniffing time (s)).

T1 sequence (P42261 19-906 isoform P42261-2 limits assumed): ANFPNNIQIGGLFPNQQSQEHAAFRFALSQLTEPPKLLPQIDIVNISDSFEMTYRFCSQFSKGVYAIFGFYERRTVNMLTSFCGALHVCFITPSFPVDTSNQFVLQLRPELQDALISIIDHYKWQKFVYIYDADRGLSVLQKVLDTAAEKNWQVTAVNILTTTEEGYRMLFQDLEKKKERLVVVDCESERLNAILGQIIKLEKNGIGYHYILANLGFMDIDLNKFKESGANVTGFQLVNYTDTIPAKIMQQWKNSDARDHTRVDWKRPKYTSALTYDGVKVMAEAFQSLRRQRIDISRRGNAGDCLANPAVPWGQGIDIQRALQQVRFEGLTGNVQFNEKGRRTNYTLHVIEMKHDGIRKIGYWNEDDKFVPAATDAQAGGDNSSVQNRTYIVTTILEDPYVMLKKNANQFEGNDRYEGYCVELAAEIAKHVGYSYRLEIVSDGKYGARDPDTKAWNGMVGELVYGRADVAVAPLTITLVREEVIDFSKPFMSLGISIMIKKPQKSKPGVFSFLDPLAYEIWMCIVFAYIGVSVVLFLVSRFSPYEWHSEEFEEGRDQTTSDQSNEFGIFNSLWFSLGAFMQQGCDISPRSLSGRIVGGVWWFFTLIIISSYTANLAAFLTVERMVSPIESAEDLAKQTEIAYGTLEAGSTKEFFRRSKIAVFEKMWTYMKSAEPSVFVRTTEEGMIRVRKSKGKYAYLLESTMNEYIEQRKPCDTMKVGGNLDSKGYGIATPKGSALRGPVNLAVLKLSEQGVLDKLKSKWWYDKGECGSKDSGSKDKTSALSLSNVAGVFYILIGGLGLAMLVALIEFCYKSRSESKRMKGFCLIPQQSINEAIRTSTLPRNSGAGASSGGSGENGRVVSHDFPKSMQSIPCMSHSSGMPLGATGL
T1 sequence (Q9Y698 whole entry partner): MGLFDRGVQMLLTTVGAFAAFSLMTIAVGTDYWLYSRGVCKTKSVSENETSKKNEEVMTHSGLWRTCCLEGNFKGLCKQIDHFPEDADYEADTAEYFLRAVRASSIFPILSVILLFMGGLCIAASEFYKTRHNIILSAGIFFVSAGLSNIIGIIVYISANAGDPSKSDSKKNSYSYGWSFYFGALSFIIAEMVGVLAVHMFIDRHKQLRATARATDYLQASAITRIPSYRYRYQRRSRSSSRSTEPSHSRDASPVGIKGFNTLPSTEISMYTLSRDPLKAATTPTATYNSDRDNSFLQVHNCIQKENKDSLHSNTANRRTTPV

With `CC1=CN2CCS(=O)(=O)N=C2C(c2ccc(OC3CCCCC3)cc2)=N1` [TAK-653, 9-[4-(Cyclohexyloxy)phenyl]-7-methyl-3,4-dihydropyrazino[2,1-c][1,2,4]thiadiazine 2,2-dioxide] the EC50 (hGluA1i) was 3.3 µM, the “DMTS accuracy at 16-s delay interval” value (cynomolgus monkeys) was “significantly ameliorated; also recorded: significantly increased” and the Sniffing index (poly-I:C mouse) was “significantly improved”.
